46 compounds from patent US20110028509A1, “Sulfonamides” (MERCK SERONO SA, priority 2008, published 2011) can be followed below.

pIC50: −log10 of the molar value.

The experiment has as its target T1, CXCR3 (Homo sapiens, UniProt P49682).
T1 sequence (P49682 1-368): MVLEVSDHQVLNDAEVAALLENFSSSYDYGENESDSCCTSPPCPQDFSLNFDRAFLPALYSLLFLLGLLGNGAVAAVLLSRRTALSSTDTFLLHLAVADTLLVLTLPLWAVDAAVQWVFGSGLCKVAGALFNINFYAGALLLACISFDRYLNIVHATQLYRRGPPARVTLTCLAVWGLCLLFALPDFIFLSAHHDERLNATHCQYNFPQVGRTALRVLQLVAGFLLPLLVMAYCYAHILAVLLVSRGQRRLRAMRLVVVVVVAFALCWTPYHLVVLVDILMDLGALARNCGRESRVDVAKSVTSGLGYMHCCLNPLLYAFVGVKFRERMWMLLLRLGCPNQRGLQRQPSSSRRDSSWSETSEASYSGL
As to the kind of experiment: CXCR3 Ca2+ mobilization (FLIPR), stable hCXCR3-CHO cell line, I-TAC stimulated. The format is cell-based. More on the design: host or cells: CHO cells stably expressing hCXCR3. As to conditions: hCXCR3-CHO cells, I-TAC 100 nM stimulated Ca2+ response; read-out: Ca-ITAC. As to the method: Human chinese hamster ovary (CHO) cell line stably expressing hCXCR3 was purchased from Euroscreen (Belgium) and culture in HAM's F12 (Invitrogen) containing 10% heat inactivated fetal calf serum (Cancerra, Australia), 50 units ml−1 penicillin, 50 μml−1 streptomycin, (Invitrogen, USA) and 400 μg/ml geneticin (G418) (Calbiochem, San Diego), according to the manufacturer.
CXCR3Ca^2+ mobilization was measured using a stable hCXCR3—CHO cell line and a microtiter-plate based assay using FLIPR^TETRA™ (Molecular Devices). In more detail, cells were harvested and plated into black 384-well plates (Becton-Dickinson) at a density of 15 000 cells per well and grown in the incubator for 18 hours. On the next day the media was aspirated and replaced with the cell loading buffer (HBSS—(Invitrogen) based buffer containing calcium indicator and signal enhancer from a commercial Ca2+ assay kit (Becton Dickinson). The plates were incubated for 60 minutes in the incubator, the test compounds were added and the plates equilibrated for 20 minutes at room temperature.
Plates were placed into FLIPR and the CXCR3 agonist (I-TAC, 100 nM) stimulated fluorescence change was quantitated. The activity of CXCR3 antagonists was determined as percent of the CXCR3 ligand I-TAC in the absence of the test compounds (=100% activity).
A general note: Calcium flux is commonly read through the fluorescence of an indicator in the cells.
Take `O=S(=O)(c1ccc(Cl)cc1)N(Cc1ccc(-c2nnn[nH]2)cc1)Cc1ccc(Cl)cc1F` [Example 70, 4-chloro-N-(2-fluoro-4-chlorobenzyl)-N-[4-(2H-tetrazol-5yl)benzyl]benzene sulfonamide]: the pIC50 is 5.52.

For the compound `O=C(N[C@H](Cc1ccccc1)C(=O)O)c1ccc(CN(Cc2ccccn2)S(=O)(=O)c2ccc(Cl)cc2)cc1` [Example 153], the pIC50 was 5.70. For the compound `O=C(NC1(c2ccc(OC(F)(F)F)cc2)CC1)c1ccc(CN(Cc2ccccn2)S(=O)(=O)c2ccc(Cl)cc2)cc1` [Example 131], the pIC50 was 5.30. For the compound `C[C@H](c1ccc(NC(=O)C2(c3ccccc3)CC2)cc1)N(Cc1ccccn1)S(=O)(=O)c1ccc(Cl)cc1` [Example 168], the pIC50 was 5.48. For `O=C(NS(=O)(=O)c1cccnc1)c1ccc(CN(Cc2ccccn2)S(=O)(=O)c2ccc(Cl)cc2)cc1` [Example 52, N-(3-pyridylsulfonyl)-4-{[[(4-chlorophenyl)sulfonyl](pyridin-2-ylmethyl)amino]methyl}benzamide] the value was 6.55; for `CCOc1ccc(S(=O)(=O)N(Cc2ccc(Oc3ccncc3)cc2)Cc2ccccn2)cc1` [Example 270], 5.22; for `CCOc1ccc(C2(NC(=O)c3ccc(CN(Cc4ccccn4)S(=O)(=O)c4ccc(OCC)cc4)cc3)CC2)cc1` [Example 130], 5.52. The result for `O=C(NC(Cc1ccc(O)cc1)C(=O)O)c1ccc(CN(Cc2ccccn2)S(=O)(=O)c2ccc(Cl)cc2)cc1` (stereo not shown) [Example 354] reads 5.22; that for `CCOc1ccc(C2(NC(=O)c3ccc(CN(Cc4ccccn4)S(=O)(=O)c4ccc(Cl)cc4)cc3)CC2)cc1` [Example 128], 6.07; that for `N#Cc1ccc(CN(Cc2ccccn2)S(=O)(=O)c2ccc([N+](=O)[O-])cc2)cc1` [Example 172], 6.15.

On to `CCOc1ccc(S(=O)(=O)N(Cc2ccc(C(=O)OC)c(O)c2)Cc2ccccn2)cc1` [Example 353], for which the pIC50 is 5.22. The result for `CCOc1ccc(C2(NC(=O)c3ccc(CN(Cc4ccccn4)S(=O)(=O)c4ccc(C#N)cc4)cc3)CC2)cc1` [Example 129] reads 5.60; that for `CC(CN(Cc1ccc(-c2nnn[nH]2)cc1)S(=O)(=O)c1ccc(Cl)cc1)c1ccccc1` (stereo not shown) [Example 227], 5.30; that for `CC(c1cccc(-c2nnn[nH]2)c1)N(Cc1ccccc1)S(=O)(=O)c1ccc(Cl)cc1` (stereo not shown) [Example 271], 5.30. With `O=S(=O)(c1ccccc1-c1ccccc1)N(Cc1ccc(-c2nnn[nH]2)cc1)Cc1ccccn1` [Example 253], the pIC50 is 5.02. For `CCOc1ccc(S(=O)(=O)N(Cc2ccc(C(=O)O)c(OC)c2)Cc2ccccn2)cc1` [Example 346] the value was 5.15. Turning to `Cc1cccc(S(=O)(=O)N(Cc2ccc(C#N)cc2)Cc2ccccn2)c1` [Example 175], the pIC50 is 5.46. For the compound `O=S(=O)(c1ccc(Cl)cc1)N(Cc1ccc(-c2nnn[nH]2)cc1)Cc1ccccc1Oc1ccc(F)cc1` [Example 104], the pIC50 was 6.00. Regarding `CCOC(=O)C1(NC(=O)c2ccc(CN(Cc3ccccn3)S(=O)(=O)c3ccc(C#N)cc3)cc2)CC1` [Example 144], the pIC50 was 6.85. Take `CCOc1ccc(S(=O)(=O)N(Cc2ccc(C(=O)NCC(C)c3ccccc3)cc2)Cc2cccnc2)cc1` (stereo not shown) [Example 206]: the pIC50 was 5.35. With `CC(C)(C)c1ccc(S(=O)(=O)N(Cc2ccc(C#N)cc2)Cc2ccccn2)cc1` [Example 177], the pIC50 is 5.84. Regarding `O=C(NCc1ccccc1)c1ccc(CN(Cc2ccc(F)cc2)S(=O)(=O)c2ccc(Cl)cc2)cc1` [Example 34, 4-{[[(4-chlorophenyl)sulfonyl](4-fluorobenzyl)amino]methyl}-N-phenyl methyl benzamide], the pIC50 was 5.74. Regarding `O=S(=O)(c1ccc(Cl)cc1)N(Cc1ccc(-c2nnn[nH]2)cc1)Cc1cc(Cl)ccc1F` [Example 61, 4-chloro-N-(5-chloro-2-fluorobenzyl)-N-[4-(2H-tetrazol-5-yl)benzyl]benzene sulfonamide], the pIC50 was 6.70.

On to `COc1cccc(S(=O)(=O)N(Cc2ccc(C#N)cc2)Cc2ccccn2)c1` [Example 178], for which the pIC50 was 5.70. The result for `CC(C)(C)c1ccc(S(=O)(=O)N(Cc2ccc(-c3nnn[nH]3)cc2)Cc2ccccn2)cc1` [Example 141] reads 5.52. On to `N#Cc1ccc(CN(CCCc2ccccc2)S(=O)(=O)c2ccc(Cl)cc2)cc1` [Example 198], for which the pIC50 is 5.51. In the case of `O=S(=O)(c1ccc(OC(F)(F)F)cc1)N(Cc1ccccc1)Cc1ccc(-c2nnn[nH]2)cc1` [Example 115], the pIC50 is 5.70. `CC(c1ccc(-c2nnn[nH]2)cc1)N(Cc1ccccc1)S(=O)(=O)c1ccc(Cl)cc1` (stereo not shown) [Example 171]: the pIC50 was 5.71. Take `CCOc1ccc(S(=O)(=O)N(Cc2ccc(C(=O)NC3(c4cccc(C#N)c4)CC3)cc2)Cc2ccccn2)cc1` [Example 85]: the pIC50 was 5.40. Consider `O=S(=O)(c1ccc(Cl)cc1Cl)N(Cc1ccc(-c2nnn[nH]2)cc1)Cc1ccccn1` [Example 78], for which the pIC50 was 5.52. Take `O=S(=O)(c1ccccc1Oc1ccccc1)N(Cc1ccc(-c2nnn[nH]2)cc1)Cc1ccccn1` [Example 237]: the pIC50 is 4.60.

For the compound `O=C(NC1(c2ccccc2)CC1)c1ccc(CN(Cc2ccccn2)S(=O)(=O)c2ccc(Cl)c(Cl)c2)cc1` [Example 46], the pIC50 was 6.15. Take `CC(CNC(=O)c1ccc(CN(Cc2cccnc2)S(=O)(=O)c2ccc(C#N)cc2)cc1)c1ccccc1` (stereo not shown) [Example 112]: the pIC50 is 5.90. Consider `O=C(NCc1ccccc1)c1ccc(CN(Cc2ccccc2)S(=O)(=O)c2ccc(Cl)nc2)cc1` [Example 36], for which the pIC50 was 6.82. As for `N#Cc1ccc(S(=O)(=O)N(Cc2ccc(C(=O)NC3(c4ccc(OC(F)(F)F)cc4)CC3)cc2)Cc2ccccn2)cc1` [Example 282], the pIC50 is 5.26.

On to `CCOC(=O)c1ccc(CN(Cc2cccnc2)S(=O)(=O)c2ccc(C#N)cc2)cc1` [Example 156], for which the pIC50 was 5.72. For `Cc1ccccc1S(=O)(=O)N(Cc1ccc(C#N)cc1)Cc1ccccn1` [Example 287], the pIC50 is 5.15. As for `N#Cc1ccc(S(=O)(=O)N(Cc2ccc(NC(=O)Cc3nnn[nH]3)cc2)Cc2ccccn2)cc1` [Example 300], the pIC50 was 4.92.

With `N#Cc1ccc(CN(Cc2ccccn2)S(=O)(=O)c2cccc(Cl)c2)cc1` [Example 313], the pIC50 was 4.82. Turning to `Cc1ccc(S(=O)(=O)N(Cc2ccc(C#N)cc2)Cc2ccccn2)cc1` [Example 174], the pIC50 was 5.82.

`O=C(NCc1ccccc1)c1ccc(CN(Cc2ccccc2)S(=O)(=O)c2ccc(F)cc2)cc1` [Example 32]: the pIC50 was 5.41. The result for `CC(C)(C)OC(=O)N[C@@H](C(=O)Nc1ccc(CN(Cc2ccccn2)S(=O)(=O)c2ccc(Cl)cc2)cc1)c1ccccc1` [Example 180] reads 6.00; that for `O=S(=O)(c1ccc(Cl)cc1)N(Cc1ccc(-c2nnn[nH]2)cc1)Cc1ccccc1-c1ccccc1` [Example 103], 5.46. For `CCOc1ccc(S(=O)(=O)N(Cc2ccc(C(=O)NC3(c4ccc(OC(F)(F)F)cc4)CC3)cc2)Cc2ccccn2)cc1` [Example 283], the pIC50 is 5.12. Consider `N#Cc1ccccc1CN(Cc1ccccn1)S(=O)(=O)c1ccc(Cl)cc1` [Example 196], for which the pIC50 is 4.89. With `CCOC(=O)c1ccc(CN(Cc2cccnc2)S(=O)(=O)c2ccc(Cl)cc2)cc1` [Example 159], the pIC50 is 5.40.
